# Source: ChEMBL document CHEMBL5150074, “Structure-Based Design of a Dual-Targeted Covalent Inhibitor Against Papain-like and Main Proteases of SARS-CoV-2” (J Med Chem, 2022)
# Active and inactive are the calls of the source. No cut-off for these calls is given here.
# Columns and labels:
# [1] = molecular target: T1, Replicase polyprotein 1ab (Severe acute respiratory syndrome coronavirus 2, UniProt P0DTD1); test: Inhibition of SARS-CoV2 main protease
# [2] = molecular target: T1, Replicase polyprotein 1ab; test: Inhibition of SARS-CoV-2 PLpro
# [3] = molecular target: Replicase polyprotein 1ab (Severe acute respiratory syndrome coronavirus 2) (UniProt P0DTD1); test: Inhibition of SARS-CoV-2 PLpro expressed in Escherichia coli BL21(DE3) using CBZ-RLRGG-AMC as substrate at 5 uM incubated for 30 mins followed by substrate addition by FRET assay
# [4] = molecular target: Replicase polyprotein 1ab (Severe acute respiratory syndrome coronavirus 2) (UniProt P0DTD1); test: Inhibition of SARS-CoV-2 MPro expressed in Escherichia coli BL21(DE3) using Dabcyl-KLSAVLQSGERKM-Edans as substrate at 5 uM incubated for 30 mins followed by substrate addition by FRET assay
# [5] = molecular target: Replicase polyprotein 1ab (Severe acute respiratory syndrome coronavirus 2) (UniProt P0DTD1); test: Binding affinity to SARS-CoV-2 MPro expressed in Escherichia coli BL21(DE3) assessed as mass shift at 15 uM incubated for 4 hrs by mass spectrometry analysis
# [6] = molecular target: Replicase polyprotein 1ab (Severe acute respiratory syndrome coronavirus 2) (UniProt P0DTD1); test: Binding affinity to SARS-CoV-2 PLpro expressed in Escherichia coli BL21(DE3) assessed as mass shift at 30 uM incubated for 4 hrs by mass spectrometry analysis
# [7] = Drug metabolism in normal saline assessed as conversion of closed form to open form by measuring rate constant at equilibrium at 2 mg/ml measured at 5 hrs by RP-HPLC analysis; format: ADME; details: buffer
# [8] = molecular target: Replicase polyprotein 1ab (Severe acute respiratory syndrome coronavirus 2) (UniProt P0DTD1); test: Covalent binding affinity to Cys145 residue of SARS-CoV-2 MPro expressed in Escherichia coli BL21(DE3) assessed as trypsin digestion mediated mass shift by mass spectrometry analysis
# [9] = molecular target: Replicase polyprotein 1ab (Severe acute respiratory syndrome coronavirus 2) (UniProt P0DTD1); test: Covalent binding affinity to Cys111 residue of SARS-CoV-2 PLpro expressed in Escherichia coli BL21(DE3) assessed as mass shift at 3 to 15 uM incubated for 4 hrs followed by trypsin digestion by mass spectrometry analysis; details: dose 3-15 µM
# [10] = molecular target: T1, Replicase polyprotein 1ab; test: Inhibition of SARS-CoV-2 MPro expressed in Escherichia coli BL21(DE3) using Dabcyl-KLSAVLQSGERKM-Edans as substrate assessed as inhibition constant measured for 30 mins by fluorimetry based microplate reader analysis
# [11] = molecular target: Replicase polyprotein 1ab (Severe acute respiratory syndrome coronavirus 2) (UniProt P0DTD1); test: Inhibition of SARS-CoV-2 MPro expressed in Escherichia coli BL21(DE3) using Dabcyl-KLSAVLQSGERKM-Edans as substrate assessed as inactivation constant measured for 30 mins by fluorimetry based microplate reader analysis
# [12] = molecular target: Replicase polyprotein 1ab (Severe acute respiratory syndrome coronavirus 2) (UniProt P0DTD1); test: Inhibition of SARS-CoV-2 MPro expressed in Escherichia coli BL21(DE3) using Dabcyl-KLSAVLQSGERKM-Edans as substrate assessed as Kinact/Ki measured for 30 mins by fluorimetry based microplate reader analysis
# [13] = molecular target: T1, Replicase polyprotein 1ab; test: Inhibition of SARS-CoV-2 PLpro expressed in Escherichia coli BL21(DE3) using CBZ-RLRGG-AMC as substrate assessed as inhibition constant measured for 30 mins by fluorimetry based microplate reader analysis
# [14] = molecular target: Replicase polyprotein 1ab (Severe acute respiratory syndrome coronavirus 2) (UniProt P0DTD1); test: Inhibition of SARS-CoV-2 PLpro expressed in Escherichia coli BL21(DE3) using CBZ-RLRGG-AMC as substrate assessed as inactivation constant measured for 30 mins by fluorimetry based microplate reader analysis
# [15] = molecular target: Replicase polyprotein 1ab (Severe acute respiratory syndrome coronavirus 2) (UniProt P0DTD1); test: Inhibition of SARS-CoV-2 PLpro expressed in Escherichia coli BL21(DE3) using CBZ-RLRGG-AMC as substrate assessed as Kinact/Ki measured for 30 mins by fluorimetry based microplate reader analysis
# [16] = molecular target: Serine/threonine-protein kinase PAK 2 (Homo sapiens) (UniProt Q13177); test: Inhibition of human PAK2 at 1 uM by DiscoverX KINOMEscan assay relative to control
# Serine/threonine-protein kinase PAK 2 (Homo sapiens), sequence (Q13177 whole entry): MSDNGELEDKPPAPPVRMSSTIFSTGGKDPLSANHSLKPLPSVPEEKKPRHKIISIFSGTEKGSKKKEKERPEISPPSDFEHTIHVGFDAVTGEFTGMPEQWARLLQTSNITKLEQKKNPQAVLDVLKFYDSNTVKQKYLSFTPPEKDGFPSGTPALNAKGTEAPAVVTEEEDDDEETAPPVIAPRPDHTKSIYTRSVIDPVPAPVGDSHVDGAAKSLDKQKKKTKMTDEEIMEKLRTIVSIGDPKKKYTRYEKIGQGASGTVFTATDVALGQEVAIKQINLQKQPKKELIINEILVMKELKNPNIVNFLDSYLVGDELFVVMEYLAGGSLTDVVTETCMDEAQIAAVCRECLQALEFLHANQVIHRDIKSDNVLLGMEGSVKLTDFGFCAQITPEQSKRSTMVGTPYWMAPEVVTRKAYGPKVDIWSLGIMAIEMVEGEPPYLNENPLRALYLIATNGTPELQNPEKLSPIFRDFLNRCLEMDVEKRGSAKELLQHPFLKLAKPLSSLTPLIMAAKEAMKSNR
# [17] = molecular target: Serine/threonine-protein kinase pim-1 (Homo sapiens) (UniProt P11309); test: Inhibition of human PIM1 at 1 uM by DiscoverX KINOMEscan assay relative to control
# Serine/threonine-protein kinase pim-1 (Homo sapiens), sequence (P11309 whole entry, looked up): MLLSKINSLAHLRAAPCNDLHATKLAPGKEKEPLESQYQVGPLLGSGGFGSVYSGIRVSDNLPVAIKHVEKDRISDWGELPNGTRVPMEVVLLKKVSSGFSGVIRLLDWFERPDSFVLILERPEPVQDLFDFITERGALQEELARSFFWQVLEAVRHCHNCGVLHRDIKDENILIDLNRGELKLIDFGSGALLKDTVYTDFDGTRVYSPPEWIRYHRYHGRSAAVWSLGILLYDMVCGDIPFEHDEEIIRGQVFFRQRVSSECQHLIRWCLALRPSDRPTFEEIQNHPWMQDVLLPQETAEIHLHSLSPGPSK
# Cathepsin B [18] = molecular target: T2, Cathepsin B (Homo sapiens, UniProt P07858); test: Inhibition of His-tagged recombinant human Cathepsin B expressed in HEK293 cells using Z-Leu-Arg-AMC as substrate incubated for 30 mins followed by substrate addition by fluorescence based analysis
# Procathepsin L [19] = molecular target: T3, Procathepsin L (Homo sapiens, UniProt P07711); test: Inhibition of human Cathepsin L using Z-Leu-Arg-AMC as substrate incubated for 30 mins followed by substrate addition by fluorescence based analysis
# Target sequence in this assay (P07711 whole entry): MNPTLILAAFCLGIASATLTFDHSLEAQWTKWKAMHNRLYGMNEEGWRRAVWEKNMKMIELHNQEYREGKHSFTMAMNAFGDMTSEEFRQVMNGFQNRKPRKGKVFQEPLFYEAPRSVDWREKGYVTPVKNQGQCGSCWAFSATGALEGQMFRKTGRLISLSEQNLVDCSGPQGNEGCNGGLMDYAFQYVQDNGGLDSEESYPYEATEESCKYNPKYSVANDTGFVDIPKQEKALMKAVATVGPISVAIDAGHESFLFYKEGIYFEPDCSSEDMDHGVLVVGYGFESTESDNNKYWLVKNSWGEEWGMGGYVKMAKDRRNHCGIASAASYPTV
# [20] = molecular target: T1, Replicase polyprotein 1ab; test: Inhibition of SARS-CoV-2 MPro expressed in Escherichia coli BL21(DE3) using Dabcyl-KLSAVLQSGERKM-Edans as substrate incubated for 30 mins followed by substrate addition by FRET assay
# [21] = molecular target: T1, Replicase polyprotein 1ab; test: Inhibition of SARS-CoV-2 PLpro expressed in Escherichia coli BL21(DE3) using CBZ-RLRGG-AMC as substrate incubated for 30 mins followed by substrate addition by FRET assay
# Cathepsin B [22] = molecular target: T2, Cathepsin B; test: Reversible inhibition of His-tagged recombinant human Cathepsin B expressed in HEK293 cells using Z-Leu-Arg-AMC as substrate at 120 nM incubated for 2.5 hrs followed by 100 fold dilution and incubated for 5 min and further incubated with substrate by fluorescence based analysis; details: time 155.0 min
# Procathepsin L [23] = molecular target: T3, Procathepsin L; test: Irreversible inhibition of human Cathepsin L using Z-Leu-Arg-AMC as substrate at 300 nM incubated for 5 hrs followed by 100 fold dilution and incubated for 5 min and further incubated with substrate by fluorescence based analysis; details: time 305.0 min
# Target sequence in this assay (P07711 114-333 limits assumed): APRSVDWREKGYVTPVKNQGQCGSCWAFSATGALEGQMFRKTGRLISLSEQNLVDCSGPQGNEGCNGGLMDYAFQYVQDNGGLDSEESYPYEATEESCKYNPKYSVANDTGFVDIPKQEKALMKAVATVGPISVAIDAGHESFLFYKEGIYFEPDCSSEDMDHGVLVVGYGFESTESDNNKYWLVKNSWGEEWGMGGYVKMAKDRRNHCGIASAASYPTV
# SARS-CoV-2 [24] = test: Antiviral activity against SARS-CoV-2 infected in Vero E6 cells assessed as reduction in viral nucleoprotein levels at 5 uM pretreated with Vero E6 cells for 1 hr followed by viral infection and further incubated for 1 followed by compound washout and measured after 48 hrs by Hoechst 33258 staining based fluorescence microscopy analysis; format: functional, organism-based; details: Severe acute respiratory syndrome coronavirus 2, time 2.0 hrs
# SARS-CoV-2 [25] = test: Antiviral activity against SARS-CoV-2 infected in Vero E6 cells assessed as reduction in viral nucleoprotein expression measured after 48 hrs by qRT-PCR analysis; format: functional, organism-based; details: Severe acute respiratory syndrome coronavirus 2, Vero C1008, 48 h
# SARS-CoV-2 [26] = test: Antiviral activity against SARS-CoV-2 infected in Vero E6 cells assessed as reduction in viral RdRP RNA levels at 15 uM measured after 48 hrs by qRT-PCR analysis; format: functional, Severe acute respiratory syndrome coronavirus 2; set-up: scale not given: the % may be the effect or the level left
# Vero C1008 = test: Cytotoxicity against African green monkey Vero E6 cells infected with SARS-CoV-2 assessed as reduction in cell viability at 15 uM measured after 48 hrs by CCK-8 assay; format: toxicity, cell-based; details: chlorocebus sabaeus, vero c1008, 48 h
# [27] = Toxicity in overnight fasted Kunming mouse assessed as animal death at 400 mg/kg, iv measured after 15 days; format: organism-based; details: in vivo, 360 h, time 15 day
# [28] = Solubility of compound in saline at higher dose; format: physicochemical; details: buffer
# [29] = Acute toxicity in overnight fasted Kunming mouse assessed as animal death at 1050 mg/kg, iv measured after 15 days; format: organism-based; details: in vivo, 360 h, time 15 day
# [30] = Acute toxicity in overnight fasted Kunming mouse assessed as toxic signs at 1050 mg/kg, iv measured after 15 days; format: organism-based; details: in vivo, 360 h, time 15 day
# [31] = Acute toxicity in overnight fasted Kunming mouse assessed as signs of abnormality at 1310 mg/kg, iv measured after 15 days; format: organism-based; details: in vivo, 360 h, time 15 day
# [32] = Acute toxicity in iv dosed overnight fasted Kunming mouse assessed as maximum tolerated dose measured after 15 days; format: organism-based; details: in vivo, time 15 day
# [33] = Acute toxicity in iv dosed overnight fasted Kunming mouse assessed as minimum lethal dose measured after 15 days; format: organism-based; details: in vivo, 360 h, time 15 day
# [34] = Acute toxicity in overnight fasted Kunming mouse assessed as reduction in body weight at 1049 to 4000 mg/kg, iv measured after 15 days; format: organism-based; details: in vivo, 360 h, dose 1049-4000 mg/kg, time 15 day
# [35] = Acute toxicity in Sprague-Dawley rat assessed as reduction in body weight at upto 300 mg/kg, po administered via gavage for 4 weeks followed by recovery for 4 weeks; format: organism-based; details: in vivo, 1344 h, time 8 weeks
# [36] = Acute toxicity in Sprague-Dawley rat assessed as effect on food consumption at upto 300 mg/kg, po administered via gavage for 4 weeks followed by recovery for 4 weeks; format: organism-based; details: in vivo, 1344 h, time 8 weeks
# [37] = Acute toxicity in Sprague-Dawley rat assessed as cellular swelling in hepatocytes at 300 mg/kg, po administered via gavage for 4 weeks; format: organism-based; details: in vivo, 672 h
# [38] = Acute toxicity in Sprague-Dawley rat assessed as cellular swelling in hepatocytes at 300 mg/kg, po administered via gavage for 4 weeks followed by recovery for 4 weeks; format: organism-based; details: in vivo, 1344 h, time 8 weeks
structure (smiles),measurement,setting,value
CC(C)C[C@H](NC(=O)[C@@H](NC(=O)OCc1ccccc1)C(C)C)C(=O)N[C@@H](C[C@@H]1CCNC1=O)C(=O)c1nc2ccccc2s1,Ki,[1],14.5 nM
COC(=O)/C=C/C(=O)NNC(=O)/C=C/c1ccccc1C(=O)N[C@H](C)c1cccc2ccccc12,IC50,[2],94 nM
CC1=NC2C(=O)C(Nc3ccc(C)cc3)=CC(=O)C2S1 (stereo unspecified),IC50,[2],390 nM
CNS(=O)(=O)c1cccc2c1C(=O)C(Nc1ccccc1)=CC2=O,inhibition,[3],Active
Cl.O=C1C=C(Nc2ccccc2N2CCNCC2)C2=NS(=O)(=O)c3cccc1c32,inhibition,[4],Active
same,inhibition,[3],Active
same,Activity,[5],392 Da
same,Activity,[6],410 Da
same,Ke,[7],0.012 min⁻¹
same,Activity,[8],Active
same,Activity,[9],Active
same,Ki,[10],7100 nM
same,Kinact,[11],0.0048 s⁻¹
same,Ratio,[12],710 M⁻¹ s⁻¹
same,Ki,[13],16000 nM
same,Kinact,[14],0.0081 s⁻¹
same,Ratio,[15],500 M⁻¹ s⁻¹
same,inhibition,[16],10%
same,inhibition,[17],35%
same,IC50,Cathepsin B [18],8800 nM
same,IC50,Procathepsin L [19],2200 nM
same,IC50,[20],120 nM
same,IC50,[21],990 nM
same,inhibition,Cathepsin B [22],Active
same,inhibition,Procathepsin L [23],Active
same,Activity,SARS-CoV-2 [24],Active
same,IC50,SARS-CoV-2 [25],3900 nM
same,Activity,SARS-CoV-2 [26],99.9%
same,Activity,Vero C1008,Non-Toxic
same,Activity,[27],Non-Toxic
same,solubility,[28],Insoluble
same,Activity,[29],Non-Toxic
same,Activity,[30],Non-Toxic
same,Activity,[31],Non-Toxic
same,MTD at 360 h,[32],1000 mg/kg
same,MLC,[33],1300 mg/kg
same,Activity,[34],Non-Toxic
same,Activity,[35],Non-Toxic
same,Activity,[36],Non-Toxic
same,Activity,[37],Toxic
same,Activity,[38],Non-Toxic
